The target of test [1] is human KHK-C (Homo sapiens (Human), UniProt P50053). Description: KHK Biochemical Assay (IC50), ADP-Glo, KHK-C. Conditions: ADP-Glo; average of at least two separate assays. The method in brief:
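Luminescent ADP-Glo read-out of ADP made by His-tagged KHK (BL21 (DE3) expression, Ni-NTA). Enzyme and compound sat together 30 min before ATP/fructose addition, then reacted 4 h at RT in Hepes pH 7.4 buffer with KCl, MgCl2, Triton-X. Quench 1 h, detection 1 h.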
(In general: In ADP-Glo the light output rises with the ADP produced.)

In test [2] the target is human KHK-A (Homo sapiens (Human), UniProt P50053). The test can be described thus: KHK Biochemical Assay (IC50), ADP-Glo, KHK-A. Conditions: ADP-Glo; average of at least two separate assays. As for the experimental part:
The His-tagged fusion protein was expressed using BL21 (DE3) with IPTG induction and purified using Ni-NTA column followed by dialysis into final buffer containing 25 mM Tris-HCl pH 8.0, 250 mM NaCl.
KHK Biochemical Assay (IC50)
Compounds were tested for KHK enzyme inhibition in a high-throughput 384-well assay format using the ADP-Glo assay (Promega) in buffer consisting of 50 mM Hepes (pH 7.4), 140 mM KCl, 5 mM MgCl2 and 0.01% Triton-X. 0.2 nM. […] Compounds were serially diluted (1:3) in DMSO.
The compounds were pre-incubated with 5 μL of 2× final enzyme concentration for 30 minutes before adding 5 μL of 2× final concentration of ATP and fructose. The plates were incubated at room temperature for 4 hours before adding ADP-Glo reagent to quench the enzyme reaction, followed by incubation at room temperature for 1 hour. The ADP-Glo detection reagent was then added to the plates and luminescence was measured on the Envision plate reader after 1 hour.

Where “and” joins values, the source holds several entries; their conditions need not be identical. Equal values may be shown once. Some results are limits rather than exact numbers.

Data on 28 compounds can be found in US12410160B2 (Gilead Sciences, Inc., priority 2021, dated 2025).

human KHK-C, sequence (P50053 whole entry): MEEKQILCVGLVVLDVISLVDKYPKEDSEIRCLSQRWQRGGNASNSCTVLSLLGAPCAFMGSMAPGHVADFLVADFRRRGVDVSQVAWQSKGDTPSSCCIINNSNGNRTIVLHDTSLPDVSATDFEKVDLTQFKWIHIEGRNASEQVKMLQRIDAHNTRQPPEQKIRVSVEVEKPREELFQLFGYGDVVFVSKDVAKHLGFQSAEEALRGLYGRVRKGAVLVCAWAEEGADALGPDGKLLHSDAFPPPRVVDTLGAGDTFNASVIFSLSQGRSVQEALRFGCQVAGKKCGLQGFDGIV
human KHK-A, sequence (P50053 other isoform, or with tags, fused parts or gaps): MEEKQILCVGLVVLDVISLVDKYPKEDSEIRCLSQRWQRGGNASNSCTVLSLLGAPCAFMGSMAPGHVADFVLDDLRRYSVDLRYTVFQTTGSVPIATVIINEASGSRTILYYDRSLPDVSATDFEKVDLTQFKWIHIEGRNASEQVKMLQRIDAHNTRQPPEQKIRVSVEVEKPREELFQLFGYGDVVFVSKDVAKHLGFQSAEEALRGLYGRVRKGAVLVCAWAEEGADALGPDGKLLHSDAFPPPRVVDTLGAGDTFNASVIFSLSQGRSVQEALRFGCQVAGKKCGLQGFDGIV

One may read the IC50 as the concentration at which inhibition is half-maximal. Read a high IC50 as weaker potency in that assay. As to `C[C@H]1CCN1c1nc2c(c(-c3ccc(C#N)s3)n1)CCC2` [Example 49, (S)-5-(2-(2-methylazetidin-1-yl)-6,7-dihydro-5H-cyclopenta[d]pyrimidin-4-yl)thiophene-2-carbonitrile], the IC50 is 0.222 µM in test [1] and 0.125 µM in test [2].
Turning to `C[C@H]1CCN1c1nc2c(c(-c3cccc(C(=O)NCCNC(=O)OC(C)(C)C)c3)n1)CCC2` [Example 51, tert-butyl (S)-(2-(3-(2-(2-methylazetidin-1-yl)-6,7-dihydro-5H-cyclopenta[d]pyrimidin-4-yl)benzamido)ethyl)carbamate], the values for the half-maximal inhibitory concentration (IC50) in test [1] and in test [2] were 0.309 µM and 0.144 µM, respectively.
For `C[C@H]1CCN1c1nc2c(c(-c3cccc(C(=O)NCCN)c3)n1)CCC2` [Example 52, (S)—N-(2-aminoethyl)-3-(2-(2-methylazetidin-1-yl)-6,7-dihydro-5H-cyclopenta[d]pyrimidin-4-yl)benzamide], in that order: 0.0427 µM and 0.0222 µM.
As to `CNCCNC(=O)c1cccc(-c2nc(N3CC[C@@H]3C)nc3c2CCC3)c1` [Example 53, (S)—N-(2-(methylamino)ethyl)-3-(2-(2-methylazetidin-1-yl)-6,7-dihydro-5H-cyclopenta[d]pyrimidin-4-yl)benzamide], the IC50 in test [1] came to 0.194 µM; in test [2], 0.13 µM.
`C[C@H]1CCN1c1nc2c(c(-c3cccc(S(=O)(=O)NCCO)c3)n1)CCC2` [Example 54, (S)—N-(2-hydroxyethyl)-3-(2-(2-methylazetidin-1-yl)-6,7-dihydro-5H-cyclopenta[d]pyrimidin-4-yl)benzenesulfonamide]: the IC50 was determined as 0.0404 µM in test [1] and 0.042 µM in test [2].
Take `C[C@H]1CCN1c1nc2c(c(-c3ccc(-c4ccccc4)nc3)n1)CCC2` [Example 55, (S)-2-(2-methylazetidin-1-yl)-4-(6-phenylpyridin-3-yl)-6,7-dihydro-5H-cyclopenta[d]pyrimidine]: the figures for the IC50 in test [1] and in test [2] were 0.801 µM and 1.08 µM, respectively.
For `C[C@H]1CCN1c1nc2c(c(-c3ccc(C(N)=O)s3)n1)CCC2` [Example 56, (S)-5-(2-(2-methylazetidin-1-yl)-6,7-dihydro-5H-cyclopenta[d]pyrimidin-4-yl)thiophene-2-carboxamide], in that order: 0.0077 µM and 0.0038 µM.
`C[C@H]1CCN1c1nc2c(c(-c3cccc(C(=O)NCCO)c3)n1)CCC2` [Example 61, (S)—N-(2-hydroxyethyl)-3-(2-(2-methylazetidin-1-yl)-6,7-dihydro-5H-cyclopenta[d]pyrimidin-4-yl)benzamide]: the half-inhibitory concentration (IC50) in test [1] is 0.0903 µM; in test [2], 0.0568 µM.
For the compound `C[C@H]1CCN1c1nc(-c2cccc(C(N)=O)c2)c2c(n1)[C@H]1CC[C@@H]2C1` [Example 62, 3-((5R,8S)-2-((S)-2-methylazetidin-1-yl)-5,6,7,8-tetrahydro-5,8-methanoquinazolin-4-yl)benzamide], the half-inhibitory concentration (IC50) was found to be 2.93 µM in test [1] and 1.92 µM in test [2].
With `C[C@H]1CCN1c1nc2c(c(-c3cccc(C(=O)Nc4cn[nH]c4)c3)n1)CCC2` [Example 64, (S)-3-(2-(2-methylazetidin-1-yl)-6,7-dihydro-5H-cyclopenta[d]pyrimidin-4-yl)-N-(1H-pyrazol-4-yl)benzamide], the IC50 in test [1] is 0.107 µM; in test [2], 0.0527 µM.
Turning to `C[C@H]1CCN1c1nc2c(c(-c3cccc(C(=O)Nc4cc[nH]n4)c3)n1)CCC2` [Example 65, (S)-3-(2-(2-methylazetidin-1-yl)-6,7-dihydro-5H-cyclopenta[d]pyrimidin-4-yl)-N-(1H-pyrazol-3-yl)benzamide], the 50% inhibitory concentration (IC50) in test [1] worked out at 0.245 µM; in test [2], 0.15 µM.
For `C[C@H]1CCN1c1nc2c(c(-c3cccc(C(=O)NC4(C(=O)O)CC4)c3)n1)CCC2` [Example 67, (S)-1-(3-(2-(2-methylazetidin-1-yl)-6,7-dihydro-5H-cyclopenta[d]pyrimidin-4-yl)benzamido)cyclopropane-1-carboxylic acid] the same measures were 0.14 µM and 0.128 µM.
For the compound `C[C@H]1CCN1c1nc2c(c(-c3cccc(C(=O)N4CC(C(=O)O)C4)c3)n1)CCC2` [Example 68, (S)-1-(3-(2-(2-methylazetidin-1-yl)-6,7-dihydro-5H-cyclopenta[d]pyrimidin-4-yl)benzoyl)azetidine-3-carboxylic acid], the IC50 in test [1] amounted to 0.0451 µM; in test [2] it was 0.0943 µM.
Consider `C[C@H]1CCN1c1nc2c(c(-c3cccc(C(=O)N4CC(CC(=O)O)C4)c3)n1)CCC2` [Example 69, (S)-2-(1-(3-(2-(2-methylazetidin-1-yl)-6,7-dihydro-5H-cyclopenta[d]pyrimidin-4-yl)benzoyl)azetidin-3-yl)acetic acid], for which the values for the IC50 in test [1] and in test [2] were 0.145 µM and 0.286 µM, respectively.
As to `C[C@H]1CCN1c1nc2c(c(-c3cccc(N)c3)n1)CCC2` [Example 71, (S)-3-(2-(2-methylazetidin-1-yl)-6,7-dihydro-5H-cyclopenta[d]pyrimidin-4-yl)aniline], the half-maximal inhibitory concentration (IC50) in test [1] is 0.104 µM; in test [2], 0.107 µM.
For `C[C@H]1CCN1c1nc2c(c(-c3cccc(NS(=O)(=O)c4cn(C)cn4)c3)n1)CCC2` [Example 73, (S)-1-methyl-N-(3-(2-(2-methylazetidin-1-yl)-6,7-dihydro-5H-cyclopenta[d]pyrimidin-4-yl)phenyl)-1H-imidazole-4-sulfonamide], in that order: 0.156 µM and 0.175 µM.
For `Cc1noc(C)c1S(=O)(=O)Nc1cccc(-c2nc(N3CC[C@@H]3C)nc3c2CCC3)c1` [Example 76, (S)-3,5-dimethyl-N-(3-(2-(2-methylazetidin-1-yl)-6,7-dihydro-5H-cyclopenta[d]pyrimidin-4-yl)phenyl)isoxazole-4-sulfonamide], in that order: 0.876 µM and 1.15 µM.
In the case of `C[C@H]1CCN1c1nc2c(c(-c3cccc(C(=O)N4CC[C@H]4C(=O)O)c3)n1)CCC2` [Example 77, (S)-1-(3-(2-((S)-2-methylazetidin-1-yl)-6,7-dihydro-5H-cyclopenta[d]pyrimidin-4-yl)benzoyl)azetidine-2-carboxylic acid], the half-maximal inhibitory concentration (IC50) in test [1] turned out to be 0.315 µM; in test [2], 0.285 µM.
As to `C[C@H]1CCN1c1nc2c(c(-c3cccc(C(=O)N4CC[C@@H]4C(=O)O)c3)n1)CCC2` [Example 78, (R)-1-(3-(2-((S)-2-methylazetidin-1-yl)-6,7-dihydro-5H-cyclopenta[d]pyrimidin-4-yl)benzoyl)azetidine-2-carboxylic acid], the concentration for half-maximal inhibition (IC50) is 0.239 µM and 0.129 µM in test [1]; 0.193 µM and 0.134 µM in test [2].
Regarding `CC(=O)Nc1ncc(S(=O)(=O)Nc2cccc(-c3nc(N4CC[C@@H]4C)nc4c3CCC4)c2)s1` [Example 84, (S)—N-(5-(N-(3-(2-(2-methylazetidin-1-yl)-6,7-dihydro-5H-cyclopenta[d]pyrimidin-4-yl)phenyl)sulfamoyl)thiazol-2-yl)acetamide], the IC50 in test [1] was determined as 0.279 µM; in test [2] it was 0.296 µM.
Consider `C[C@H]1CCN1c1nc2c(c(-c3cc(C(N)=O)ns3)n1)CCC2` [Example 85, (S)-5-(2-(2-methylazetidin-1-yl)-6,7-dihydro-5H-cyclopenta[d]pyrimidin-4-yl)isothiazole-3-carboxamide], for which the concentration for half-maximal inhibition (IC50) was 1.37 µM in test [1] and 1.12 µM in test [2].
Take `C[C@H]1[C@H](N)CN1c1nc2c(c(-c3ccc(C(N)=O)cc3)n1)CCC2` [Example 93]: the IC50 in test [1] and in test [2] was over 5 µM in each case.
On to `c1ccc(-c2nc(C3CC3)nc3c2CCC3)cc1` [Example 96, 2-cyclopropyl-4-phenyl-6,7-dihydro-5H-cyclopenta[d]pyrimidine], for which the figures for the IC50 in test [1] and in test [2] were over 5 µM and 4.66 µM, respectively.
Take `c1ccc(-c2nc(C3CCC3)nc3c2CCC3)cc1` [Example 97, 2-cyclobutyl-4-phenyl-6,7-dihydro-5H-cyclopenta[d]pyrimidine]: the half-maximal inhibitory concentration (IC50) was 2.23 µM in test [1] and 0.937 µM in test [2].
For `c1ccc(-c2nc(C3CC4CCC3C4)nc3c2CCC3)cc1` (centres unmarked) [Example 98, 2-(bicyclo[2.2.1]heptan-2-yl)-4-phenyl-6,7-dihydro-5H-cyclopenta[d]pyrimidine], in that order: over 5 µM and over 5 µM.
On to `c1ccc(-c2nc(C3CNC3)nc3c2CCC3)cc1` [Example 99, 2-(azetidin-3-yl)-4-phenyl-6,7-dihydro-5H-cyclopenta[d]pyrimidine], for which the IC50 in test [1] and in test [2] was over 5 µM each time.
Take `Cc1nnc(-c2ccc(-c3nc(N4CC[C@@H]4C)nc4c3CCC4)cc2)o1` [Example 100, (S)-2-methyl-5-(4-(2-(2-methylazetidin-1-yl)-6,7-dihydro-5H-cyclopenta[d]pyrimidin-4-yl)phenyl)-1,3,4-oxadiazole]: the IC50 in test [1] and in test [2] was 0.161 µM each time.
Take `C[C@H]1CCN1c1nc2c(c(-c3ccc(-c4nccn4C)cc3)n1)CCC2` [Example 101, (S)-4-(4-(1-methyl-1H-imidazol-2-yl)phenyl)-2-(2-methylazetidin-1-yl)-6,7-dihydro-5H-cyclopenta[d]pyrimidine]: the half-inhibitory concentration (IC50) in test [1] amounted to 0.119 µM; in test [2], 0.0691 µM.
